Entries after “also recorded” stand apart in the source; their conditions may differ. Like-named read-outs stand apart in the source and are kept apart here.

The record followed here is patent publication US8383111B2, “Inotropic antibodies and therapeutic uses thereof” (priority 2002, dated 2013).

The test system of series [1] is (Na^++K^+)-ATPase. Put plainly: Immunofluorescent staining of antibody in rat cardiac myocytes and CV-1 cells. The format is binding, rat; African green monkey. The settings on record: for competition with the Jianye-2 antibody binding site (Jianye-2 antibody staining in presence of competitor): 1 mM ouabain or strophanthidin. An excerpt: FIG. 1 (which includes FIGS. 1A through 1F) are photographs showing the immunofluorescent staining of Jianye-2 antibody in rat cardiac myocytes and African green monkey CV-1 cells, FIGS. 1A-1B are photographs of the confocal image of rat cardiac myocytes in the presence of Jianye-2 (FIG. 1A) or with both Jianye-2 antibody and peptide blocker (FIG. 1B). […] FIG. 1D is a photograph of a single CV-1 cell image at 3000× FIGS. 1E-1F are photographs showing Jianye-2 antibody staining in the presence of either 1 mM ouabain (FIG. 1E) or strophanthidin (FIG. 1F).
Confocal image of rat cardiac myocytes in the presence of Jianye-2, shown in FIG. 1A or with both Jianye-2 antibody and peptide blocker (FIG. 1B). […] Jianye-2 antibody staining in the presence of either 1 mM ouabain (FIG. 1E) or strophanthidin (FIG. 1F). […] Time runs from left to right. […] Columns B, C, D show the results obtained 10, 20, 30 min after administration of either buffer (upper panel) or Jianye-2 antibody (lower panel, 85 nM). Enzyme activity was monitored in cell homogenates under the same experimental condition. […] The data represent a mean of 12 independent experiments. […] The data represent a mean of four independent experiments.

Another series concerns rat ventricular myocytes. Put plainly: Measurement of cell contraction in isolated rat ventricular myocytes. The format is cell-based. The procedure: Ventricular cardiac myocytes were isolated from adult Sprague-Dawley rats (2-3 months old; weight 225-300 g) using standard enzymatic techniques. Briefly, following anesthesia (sodium pentobarbital, 100 mg/kg), the heart was quickly removed from the chest and aortic perfused at constant pressure (100 cmH2O) at 37° C. for 3 minutes with a Ca^2+-free bicarbonate-based buffer containing 120 mM NaCl, 5.4 mM MgSO4, 1.2 mM NaH2PO4, 5.6 mM glucose, 20 mM NaHCO3, and 5 mM taurine, in the presence of O2 (95%)-CO2 (5%). The enzymatic digestion was initiated by adding collagenase (Worthington Type II, 1 mg/ml) to the perfusion solution. Calcium (50 µM) was added to the enzyme solution when the heart became swollen. About 7 minutes later, the left ventricle was quickly removed, cut into several pieces, and further digested on a shaker (60-70 rpm) for 10 minutes in the same enzyme solution. The supernatant containing the dispersed myocytes was filtered into a test tube and gently centrifuged at 500 rpm for 1 minute. […]
Cardiac myocytes were isolated from wild-type adult Sprague-Dawley rats, using a standard enzymatic method described previously (Xu, K. Y., et al., (2002) BBRC, 289:167-172). […] Cell length was monitored from the bright-field image (650 nm to 750 nm red light illumination) by an optical edge-tracking method using a photodiode array (model 1024 SAQ, Reticon) with a 3-ms time resolution. […]

The target in series [2] is T1, (Na^++K^+)-ATPase (Rattus norvegicus, UniProt P06685).
T1 construct: Rat cardiac sarcolemmal (SL) vesicles were isolated from rat heart muscle by sucrose flotation method; from tissue; host or cells: rat heart muscle (sarcolemmal vesicles, SDS treatment and sucrose gradient)
The series can be described thus: Determination of (Na^++K^+)-ATPase activity. As to conditions: monitored in cell homogenates under the same experimental condition as contraction. Format: biochemical.

The next series concerns rat cardiac myocytes. The series can be described thus: Measurement of intracellular Ca2+ transients. The format is cell-based. As to conditions: rat heart cells; mean of 12 independent experiments. The procedure: Rat cardiac myocytes were loaded with 50 µg of a cell permeable fluorescent Ca.2+ probe, Indo-1/acetoxymethyl-ester (Indo-1/AM, Molecular Probes, Inc., Eugene, Oreg.) for 10 min and then resuspended in HEPES-buffered solution in the presence of 1 mM Ca.2+ and stored in the dark at room temperature for 60 min before be utilized for the experiments. The Indo-1 loaded cells were placed on the stage of a modified inverted microscope (model IM-35; Carl Zeiss, Inc., Thornwood, N.Y.) equipped for simultaneous recording of Indo-1 fluorescence and cell length. Cells were electrically paced at 0.5 Hz at room temperature and the excitation wavelength was selected by a 350-nm interference filter (bandwidth 10 nm; Oriel Corp., Stratford, Conn.). The ratio of emission intensity at 410 nm to that at 490 nm was computed offline as an index of intracellular Ca.2+ (Cai^2+) transient. The peak amplitude of the transient is defined as the difference of the 410:490 fluorescence ratio before and after electrical stimulation with or without antibody.

Series [3] concerns mouse heart left ventricle. Put plainly: Measurement of mice cardiac contraction in vivo (pressure-volume catheter). The procedure:
Male wild-type mice (CD1, Charles River, 32-40 g) were utilized for this study. Mice In vivo cardiac functions were assessed by pressure-volume catheter in anesthetized mice. Briefly, mice were induced with 5% isofluorane, anesthetized with an intraperitoneal injection of urethane (300-500 mg/kg), etomidate (5 mg/kg) and morphine (0.5 mg kg-1), and intubated with a blunt 19 G needle inserted via tracheostomy. […] Ventilation was initiated with 100% oxygen using a custom-designed, constant flow ventilator delivering a tidal volume of […] at 120 breaths per min. The left external jugular vein was cannulated with a 30 G needle connected to an infusion pump. Modest volume expansion was provided (150 µL of 12.5% human albumin) at 50 µL/min. Following stabilization, a lateral incision was made at the xyphoid cartilage to expose the left ventricular (LV) apex. The 1.4F pressure-volume catheter (SPR-839, Millar Instruments Inc., Houston, Tex., USA) was inserted via an apical needle puncture with a 26 G needle, and advanced along the cardiac long axis. A 2F pacing catheter (NuMed, Nicholville, N.Y., USA) was placed in the esophagus, dorsal to the left atrium. Atrium was paced using 5-7 V, 2 ms pulses (SD25, Grass Instruments, Quincy, Mass., USA). Calibration of the volume signal was performed using a 5-10 µL bolus of 30% hypertonic saline injected into the jugular vein to determine the signal offset and ultrasound flow probe (AT01RB, Transonic Systems Inc.) placed around the thoracic aorta to determine signal gain. Data were digitized at 2 kHz and stored to disk for off line analysis.
Mice cardiac atria pacing were maintained at constant beating (600 beats/min). The hearts were infused with PBS (5 µl/min) for 10 min prior for administration of SSA78 infusion (5 µl/min) for 30 minutes and following by 10 min PBS washout at 5 µl/min. […] Steady-state indices were derived from 10 consecutive averaged beats. Cardiac preload was indexed as the left ventricular end-diastolic volume (EDV) and end-diastolic pressure (EDP). Cardiac afterload was evaluated as effective arterial elastance (Ea; ratio of LV systolic pressure to stroke volume). This parameter is not preload dependent and had been validated to closely approximate total afterload, which incorporates systemic vascular resistance, aortic impedance, and the reflected wave properties of the vasculature. Myocardial contractility was indexed by cardiac output (CO), dPdt max, dPdt max normalized to instantaneous developed pressure (dPdt max/IP), the load-independent end-systolic pressure-volume relationship (Ees) and preload recruitable stroke work (PRSW). Diastolic perform performance was measured by dPdt min and the time constant of ventricular relaxation.

The subject of the next series is heart failure rats. The series can be described thus: Immunization with KX-1 peptide vaccine in heart failure rat model (echocardiography). The settings on record: peptide injected as vaccine, TiterMax Gold adjuvant, vs control heart failure rat without immunization. Format: in vivo. As to the method:
FIG. 9 is a graph showing the effect of immunization with KX-1 on the rat cardiac heart failure function. The peptide DVEDSYGQQWTYEQR (SEQ ID NO: 2) was injected into the animal as a vaccine to reduce the rate of progression of heart failure in the heart failure rat model. TiterMax Gold was used as an adjuvant throughout the experiment.
Echocardiography (Echo) uses sound waves to form a picture of the heart valves and heart muscle. The Echo machine sends sound waves to a transducer (a sound sensitive instrument) that is placed on the animal's chest. The sound waves are reflected by the heart was (muscle) and heart valves and back to the transducer, which changes the sound into a picture. Gel is applied on the rat chest and a transducer is placed over the heart area. Heart structures are examined by changing the direction of the transducer. The sound waves cause no discomfort. Thus, an Echo detects the changes and provides information about heart chamber size, wall motion, valve movements, and structural changes in and around the heart.

In general, EC50 refers to the concentration giving half of the maximal effect. Regarding “Jianye-2 antibody: polyclonal rabbit IgG recognizing the RSATEEEPPNDD (SEQ ID NO: 1) peptide (H1-H2 domain) of the alpha-subunit of (Na++K+)-ATPase”, the “binding to the (Na++K+)-ATPase on the surface of the cell membrane (immunofluorescent staining)” value with (Na^++K^+)-ATPase [1] (rat cardiac myocytes and African green monkey CV-1 cells) is listed as “specifically binds; also recorded: binds to its antigenic site”. For the same compound, in the series with rat ventricular myocytes (85 nM antibody, 10, 20, 30 min after administration, vs buffer), the “rat heart cell contraction (time course)” value is given as “enhanced rat heart cell contraction”. The EC50 in the series with rat ventricular myocytes (dose-dependent contractile response in rat ventricular myocytes, mean of four independent experiments, read-out: half maximal contractile response (EC50)) was 35 nM. Moreover, the “(Na++K+)-ATPase activity” value in the series with (Na^++K^+)-ATPase [2] is “without inhibiting”. Besides, the “intracellular Ca2+” value in the series with rat cardiac myocytes was “markedly increased”. Further, the “first order rate constant of increase in mouse heart contraction” value in series [3] is on record as 1.06 %/min; in series [3] (3.4 µM antibody) it was 1.06 %/min; in series [3] (6.0 µM antibody) it was 2.16 %/min; in series [3] (6.0 mM antibody), 2.16 %/min. Also, the “mouse heart contraction, percent of background control (0 min as 100%)” value is recorded as 108(.+−.5.3) % in series [3] (3.4 µM antibody, 5 min); 113(.+−.7) % in series [3] (3.4 µM antibody, 10 min); 116(.+−.10) % in series [3] (3.4 µM antibody, 15 min); 122(.+−.9.0) % in series [3] (3.4 µM antibody, 20 min); 115(.+−.9.0) % in series [3] (6.0 µM antibody, 5 min); 127(.+−.21) % in series [3] (6.0 µM antibody, 10 min). Also, the “mouse heart contraction, percent of background control (0 min as 100%)” value in series [3] (6.0 µM antibody, 15 min) was 137(.+−.16) %; in series [3] (6.0 µM antibody, 20 min), 143(.+−.30) %; in series [3] (6.0 mM antibody, 5 min) it was 115(.+−.9.0) %; in series [3] (6.0 mM antibody, 10 min), 127(.+−.21) %; in series [3] (6.0 mM antibody, 15 min), 137(.+−.16) %; in series [3] (6.0 mM antibody, 20 min) it was 143(.+−.30) %. For the same compound, the “mouse heart contraction, percent of background control (0 min as 100%)” value is 108(.+−.5.3) % in series [3] (5 min), 113(.+−.7) % in series [3] (10 min), 116(.+−.10) % in series [3] (15 min) and 122(.+−.9.0) % in series [3] (20 min). Also, the “positive inotropic effect (ventricular pressure-volume loops)” value in series [3] (normal mouse heart left ventricle, 6.0 µM in PBS, pH 7.2, total 150 ml at 5 ml/min) was “dramatically induced a reversible positive inotropic effect”.
For the compound “DVEDSYGQQWTYEQR [peptide of the H7-H8 domain of (Na++K+)-ATPase alpha-subunit, injected as vaccine to generate endogenous KX-1 antibody]”, in the series on heart failure rats, the “rate of progression of heart failure (cardiac function)” value is on record as “significantly decreased the progression of heart failure; also recorded: significantly delayed the rate of the progression of heart failure”.
For the compound `C[C@]12CC[C@H]3[C@@H](CC[C@]4(O)C[C@@H](O)CC[C@]34C=O)[C@@]1(O)CC[C@@H]2C1=CC(=O)OC1` [strophanthidin, reference compound], the “competition with the Jianye-2 antibody binding site (Jianye-2 antibody staining in presence of competitor)” value in the series on (Na^++K^+)-ATPase [1] was “compete with the Jianye-2 antibody binding site”.
The same measure, in the same setting: in the case of `C[C@@H]1O[C@@H](O[C@H]2C[C@@H](O)[C@]3(CO)[C@H]4[C@H](O)C[C@]5(C)[C@@H](C6=CC(=O)OC6)CC[C@]5(O)[C@@H]4CC[C@]3(O)C2)[C@H](O)[C@H](O)[C@H]1O` [ouabain, reference compound] it was “compete with the Jianye-2 antibody binding site”.
